Source: article PMC11665553, “12-Lipoxygenase inhibition delays onset of autoimmune diabetes in human gene replacement mice” (JCI Insight, 2024)
Values joined by “and” are separate entries in the source; they are usually repeats but may differ in a detail not shown here. Equal values may be shown once.

Assays:
[1] = system: BMDMs from NOD.hALOX12 mice; experiment: RNA sequencing of M0 and M1-like polarized BMDMs; format: cell-based, mouse; details: sheet Fig 5G; 4 replicates; listed as VLX
Text: BMDMs were unpolarized (M0) or polarized to an M1-like state (with lipopolysaccharide and IFN-γ) to mimic the inflammatory state that might be observed during T1D pathogenesis.
These common genes mapped to pathways related to cytokine-mediated signaling, T cell activation, and antigen processing and presentation (Supplemental Figure 3B). […] The 507 genes altered with vehicle treatment mapped to GO pathways related to the M1 polarization phenotype (myeloid cell differentiation, immune response, response to cytokines) and pathways related to oxidative stress (cell redox homeostasis, response to hydrogen peroxides) (Figure 5E). These pathways were not identified in the genes that were differentially expressed during VLX-1005 treatment.
BMDMs were isolated from 8-week-old NOD.hALOX12 mice as described previously ([2]). The isolated BMDMs were cultured for 7 days in complete medium (RPMI 1640 containing 10% FBS, 10 mM HEPES, and 100 U/mL penicillin/streptomycin) supplemented with 10 ng/mL M-CSF. […] After 1-hour pretreatment, the BMDMs were further stimulated with 10 ng/mL LPS and 25 ng/mL IFN-γ for 18 hours for M1-like polarization. RNA was isolated and used for sequencing.
RNA extraction was performed using RLT Buffer, according to the manufacturer’s instructions (Qiagen). Samples were submitted for library generation and sequencing by the University of Chicago sequencing core using a NovaSeq 6000 (Illumina). Data were analyzed using Galaxy (https://usegalaxy.org/). Reads were aligned to the Mus musculus genome build mm10 using HISAT2 (https://daehwankimlab.github.io/hisat2/). Individual sample reads were quantified using HTseq-count and normalized using DESeq2 (https://bioconductor.org/packages/release/bioc/html/DESeq2.html). DEseq2 was also used to calculate FCs and P values and to perform optional covariate correction. GO was used for pathway analysis.

[2] = Pharmacokinetics after single p.o. dose in C57BL/6J mice (plasma LC-MS/MS)
[3] = system: B6.hALOX12 mice; experiment: Multiple low-dose STZ-induced diabetes in B6.hALOX12 mice (random-fed blood glucose, GTT, β cell mass); details: for Blood glucose (Fig 1H) / GTT blood glucose (Fig 1I): individual animals; for Random-fed blood glucose (Fig 1E) / GTT blood glucose (Fig 1F): hAlox12 mice, listed as ML355, 30 mg/kg; for Random-fed blood glucose (Fig 1E): 30 mg/kg i.p. + STZ
Procedure: Intraperitoneal GTTs (IPGTTs) were performed in mice after overnight fasting (16 hours). Mice were i.p. injected with glucose at a dose of 1 or 2 g/kg body weight and blood glucose levels were measured at specific time points: 0, 10, 20, 30, 60, 90, and 120 minutes after glucose injection using an AlphaTrak glucometer.
Random-fed glucose levels were measured by tail snip using a glucometer (AlphaTrak), and mice were followed for 20 days after STZ injections. IPGTT was performed on day 4 after STZ treatments after overnight fasting.

[4] = C57BL/6J, mouse, plasma, po, 30 mg/kg
[5] = B6.hALOX12 mice, 30 mg/kg p.o., STZ

COc1cccc(CNc2ccc(S(=O)(=O)Nc3nc4ccccc4s3)cc2)c1O [VLX-1005]
Tmem126a expression (heat map value) [1]: 0.7845 and 0.7743 and 0.7659 and 0.465 | Tomm70a expression (heat map value) [1]: 1.572 and 1.428 and 1.219 and 1.127 | Ttll12 expression (heat map value) [1]: 2.1636 and 1.773 and 1.7 and 1.671 | Ube2k expression (heat map value) [1]: 1.475 and 1.413 and 1.263 and 1.205 | AUC%extrap_obs ([2]; C57BL/6J mice, 30 mg/kg p.o., mean ± SD): 0.342 ± 0.133% | AUC(0-inf) [2, 4]: 15100 ng·h/mL | AUC(0-t) [2, 4]: 15000 ng·h/mL | Cmax [2, 4]: 13300 ng/mL | MRT inf [2, 4]: 2.57 ± 0.38 h | half-life [2, 4]: 3.24 ± 0.07 h | Glucose tolerance vs vehicle [3, 5]: significantly improved glucose tolerance | Random-fed blood glucose levels vs vehicle [3, 5]: lower random-fed blood glucose levels | β cell mass at end of study vs vehicle [3, 5]: greater β cell mass | GTT AUC (Fig 1J) ([3]; B6.hALOX12 mice, 30 mg/kg p.o., day 4 after STZ, individual mice, 30 mg/kg): 38575 and 27605 and 37915 and 32740 and 28655 and 39615 | β cell mass (Fig 1K) ([3]; B6.hALOX12 mice, 30 mg/kg p.o., day 26 after STZ, individual mice, listed as VLX, 30 mg/kg): 0.4287 and 0.8456 and 0.5623 and 0.6492 and 1.024 | Glucose tolerance (GTT) ([3]; B6.hALOX12 vs WT C57BL/6J mice, both 30 mg/kg i.p., after STZ): improved glucose tolerance | Blood glucose (Fig 1H) ([3]; day 1): 293 and 265 and 377 and 281 and 389 and 367 | Blood glucose (Fig 1H) ([3]; day 4): 209 and 312 and 289 and 205 and 311 and 272 | Blood glucose (Fig 1H) ([3]; day 8): 346 and 273 and 297 and 307 and 219 and 303 | Blood glucose (Fig 1H) ([3]; day 11): 435 and 460 and 385 and 378 and 441 and 298 | Blood glucose (Fig 1H) ([3]; day 16): 427 and 543 and 470 and 301 and 405 and 380 | Blood glucose (Fig 1H) ([3]; day 18): 571 and 573 and 426 and 374 and 417 and 346 | Blood glucose (Fig 1H) ([3]; day 23): 474 and 543 and 550 and 331 and 533 and 356 | Blood glucose (Fig 1H) ([3]; day 25): 630 and 501 and 416 and 359 and 457 and 307 | Blood glucose (Fig 1H) ([3]; day 28): 426 and 551 and 530 and 363 and 483 and 470 | Blood glucose (Fig 1H) ([3]; day -3): 296 and 262 and 381 and 299 and 367 and 314 | GTT AUC (Fig 1G) ([3]; hALOX12 mice, 30 mg/kg i.p., day 4 after STZ, individual mice, 30 mg/kg): 24945 and 29635 and 27915 and 36735 | Random-fed blood glucose (Fig 1E) ([3]; day 0, individual mice): 184 and 194 and 153 and 159 | Random-fed blood glucose (Fig 1E) ([3]; day 5, individual mice): 174 and 179 and 181 and 131 | Random-fed blood glucose (Fig 1E) ([3]; day 10, individual mice): 195 and 201 and 210 and 180 | Random-fed blood glucose (Fig 1E) ([3]; day 15, individual mice): 167 (2×) and 210 and 214 | Random-fed blood glucose (Fig 1E) ([3]; day 22, individual mice): 193 and 223 and 208 and 188 | Random-fed blood glucose (Fig 1E) ([3]; day 27, individual mice): 216 and 217 and 226 and 193 | Random-fed blood glucose (Fig 1E) ([3]; day -5, individual mice): 194 and 201 and 167 and 185 | GTT blood glucose (Fig 1F) ([3]; 30 mg/kg i.p., day 4 after STZ, 0 min after glucose, individual mice): 184 and 132 and 122 and 134 | GTT blood glucose (Fig 1F) ([3]; 30 mg/kg i.p., day 4 after STZ, 10 min after glucose, individual mice): 401 and 364 and 354 and 369 | GTT blood glucose (Fig 1F) ([3]; 30 mg/kg i.p., day 4 after STZ, 20 min after glucose, individual mice): 610 and 557 and 487 and 467 | GTT blood glucose (Fig 1F) ([3]; 30 mg/kg i.p., day 4 after STZ, 30 min after glucose, individual mice): 512 and 597 and 398 and 458 | GTT blood glucose (Fig 1F) ([3]; 30 mg/kg i.p., day 4 after STZ, 60 min after glucose, individual mice): 361 and 446 and 310 and 375 | GTT blood glucose (Fig 1F) ([3]; 30 mg/kg i.p., day 4 after STZ, 90 min after glucose, individual mice): 221 and 387 and 284 and 306 | GTT blood glucose (Fig 1F) ([3]; 30 mg/kg i.p., day 4 after STZ, 120 min after glucose, individual mice): 159 and 209 and 223 and 281 | Protection from STZ-induced diabetes ([3]; male B6.hALOX12 mice, 30 mg/kg i.p. daily peri-STZ): complete protection from STZ-induced diabetes | GTT blood glucose (Fig 1I) ([3]; time 0): 403 and 326 and 234 and 245 and 279 and 370 | GTT blood glucose (Fig 1I) ([3]; time 10): 585 and 462 (2×) and 543 and 359 and 482 | GTT blood glucose (Fig 1I) ([3]; time 20): 636 and 668 and 606 and 558 and 520 and 577 | GTT blood glucose (Fig 1I) ([3]; time 30): 577 and 520 and 660 and 662 and 560 and 646 | GTT blood glucose (Fig 1I) ([3]; time 60): 488 and 436 and 530 and 581 and 420 and 589 | GTT blood glucose (Fig 1I) ([3]; time 90): 345 and 329 and 461 and 457 and 365 and 408 | GTT blood glucose (Fig 1I) ([3]; time 120): 239 and 265 and 375 and 360 and 216 and 283
